The target in one data set is T1, CHIKV 6K (GST-6K) (Chikungunya virus strain Senegal 37997, UniProt Q5XXP3).
T1 construct: mature 6K cut from structural polyprotein C-E3-E2-6K-E1; N-terminal GST tag kept (pGEX-6P2), E. coli Rosetta pLysS
In words: planar lipid bilayer electrophysiology; also liposome dye release and DLS fusion assay. The settings on record: 1 uM amantadine; 2.6 ng/ul GST-6K in DPhPC/cholesterol bilayer, 500 mM KCl, 5 mM MgCl2, 10 mM HEPES pH 7.4, 24-25 C, -70 and +70 mV; direct binding not measured. Format: biochemical.

The data set “SEC” concerns the molecule itself. Kind of data set: SEC. Background: SEC sorts molecules by how far they enter the pores of the column.

What is called stoichiometry N is the number of molecules, sites or subunits per partner or assembly.

Consider `NC12CC3CC(CC(C3)C1)C2` [amantadine], for which the “planar lipid bilayer electrophysiology; also liposome dye release and DLS fusion” value at CHIKV 6K (GST-6K) was “This clearly indicates that amantadine abolishes the ion channel activity of CHIKV 6K”.

B1: GST-6K (fusion of Chikungunya virus 6K with Glutathione S Transferase) (natural protein)
chain: ATYYEAAAYLWNEQQPLFWLQALIPLAALIVLCNCLKLLPCCCKTLAFLAVMSIGAHTVSA
notes: Monomer MW printed as 33.5 kDa; The GST tag was not removed; also called CHIKV 6K; recombinant GST-6K; not shown: GST, N-terminal, kept
Turning to B1, in the data set “SEC”, the “stoichiometry N” value stood at 6.

(Values after PMC6655611, “The effect of amantadine on an ion channel protein from Chikungunya virus” (PLoS Neglected Tropical Diseases, 2019).)
